In PubChem BioAssay (NCI):
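The compound was tested at five concentrations on cells cultured in 96-well plates, with a 48-hour exposure period. GI50 = concentration required for 50% inhibition of growth. TGI is the concentration that stops growth completely.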

What was measured:
Experiment in all cases: growth of human tumour cells (NCI), 48 h
A549 NSCLC = test system: A549 NSCLC
CAKI-1 renal = test system: CAKI-1 renal
MCF7 breast = test system: MCF7 breast
MDA-MB-231 breast = test system: MDA-MB-231 breast
NCI-H460 lung = test system: NCI-H460 lung
RXF 393 renal = test system: RXF 393 renal
SF-268 CNS = test system: SF-268 CNS
SF-539 CNS = test system: SF-539 CNS
T-47D breast = test system: T-47D breast
A498 renal = test system: A498 renal

SMILES | GI50 (A549 NSCLC) [µM] | TGI (A549 NSCLC) [µM] | GI50 (CAKI-1 renal) [µM] | TGI (CAKI-1 renal) [µM] | GI50 (MCF7 breast) [µM] | TGI (MCF7 breast) [µM] | GI50 (MDA-MB-231 breast) [µM] | TGI (MDA-MB-231 breast) [µM] | GI50 (NCI-H460 lung) [µM] | TGI (NCI-H460 lung) [µM] | GI50 (RXF 393 renal) [µM] | TGI (RXF 393 renal) [µM] | GI50 (SF-268 CNS) [µM] | TGI (SF-268 CNS) [µM] | GI50 (SF-539 CNS) [µM] | TGI (SF-539 CNS) [µM] | GI50 (T-47D breast) [µM] | TGI (T-47D breast) [µM] | TGI (A498 renal) [µM] | GI50 (A498 renal) [µM]
NC(=O)c1ccc(I)c(N=O)c1 | 42.1 | > 100 | 20 | 45.4 | 39.6 | > 100 | 35.5 | > 100 | 62.6 | > 100 | 28.7 | 66 | 62.1 | > 100 | 32.3 | > 100 | 32.3 | 87.8 |  | 
Cc1cc(NCCCCCCNc2cc(C)nc3cc(N(C)C)ccc23)c2ccc(N(C)C)cc2n1 |  |  |  | > 100 |  |  |  |  |  | > 100 |  | > 100 |  | > 100 |  | > 100 |  |  | > 100 | 
Cc1cc2c(C)nn(Cc3ccccc3)c2c(C(N)=O)c1C |  | > 100 |  |  |  |  |  |  |  | > 100 |  |  |  | > 100 |  | > 100 |  |  | > 100 | 
CCN(CC)CCOc1ccc(CCc2cc(OC)c(OC)c(OC)c2)cc1 |  | > 100 |  | > 100 |  |  |  |  |  | > 100 |  | 93.2 |  | > 100 |  | > 100 |  |  | 98.7 | 
O=C1NC2(CCCCCC2)C2CCCCCCC12O (centres undefined) |  | > 100 |  | > 100 |  |  |  |  |  | > 100 |  | > 100 |  | > 100 |  | > 100 |  |  | > 100 | 
c1csc(-c2cn3nc(-c4c[nH]c5ccccc45)sc3n2)c1 | 1.72 | > 100 | 0.997 | > 100 | 1.17 | 20.2 | 1.08 | 7.88 | 0.574 | > 100 | 2.05 | 50 | 3.84 | > 100 | 1.49 | 4.6 |  |  | 23.6 | 5.97
Clc1ccc(N=Nc2nc3ccccc3nc2N=Nc2ccc(Cl)cc2Cl)c(Cl)c1 |  | > 100 |  |  |  |  |  |  |  | > 100 |  | > 100 |  | > 100 |  | > 100 |  |  | > 100 | 
O=c1oc(Cl)c(Cl)c2ccccc12 | 54.2 | > 100 | 21.5 | 39.6 | 35.5 | > 100 | 24.8 | 68.4 | 55.5 | > 100 | 24.8 | 52.2 | 38.2 | > 100 | 17 | 38.5 | 40.6 | > 100 |  | 
COc1cc([C@@H]2c3cc4c(cc3[C@@H](OC(=O)c3ccc(N)cc3)C3COC(=O)[C@@H]32)OCO4)cc(OC)c1O (some centres undefined) |  | 28.1 |  | > 95 |  |  |  |  |  | 46.7 |  | > 95 |  | > 95 |  | 7.99 |  |  | 31.5 | 
O=C1c2cccc(NCCN=Cc3cc([N+](=O)[O-])ccc3O)c2C(=O)c2c(NCCN=Cc3cc([N+](=O)[O-])ccc3O)cccc21 | 3.89 | > 100 |  |  |  |  | 3.12 | 71.7 |  |  | 7.01 | > 100 | 2.42 | > 100 |  |  | 9.38 | > 100 | 31.6 | 3.73
